ChEMBL document CHEMBL3739319, “Identification of a novel class of autotaxin inhibitors through cross-screening” (Medchemcomm, 2015)
Converted amounts (≈) assume the structure as drawn. The source made the active and inactive calls. The calls are words filed in the database; no cut-off is given here.

Legend:
[1] = Lipophilicity, log D of compound at pH 7.4 by RP-HPLC analysis; type: physicochemical; settings: buffer
[2] = Kinetic solubility of compound in phosphate buffer at pH 7.4 for 1 hr; type: physicochemical; settings: read-out: Kinetic_solubility
[3] = Permeability of compound across artificial membrane after 3 hrs by LC-MS analysis; type: ADME; settings: PAMPA; read-out: permeability
Autotaxin [4] = molecular target: T1, Autotaxin (Homo sapiens, UniProt Q13822); experiment: Inhibition of ATX (unknown origin) using bis-(p-nitrophenyl)phosphate as substrate
A2780 = experiment: Cytotoxicity against human A2780 cells at 30 uM after 42 hrs by alamar blue assay; type: cell-based; settings: a2780, 42 h
PC-3 = experiment: Inhibition of LPA-induced cell proliferation of human PC3 cells at 10 uM after 18 hrs by [3H]-thymidine incorporation assay; type: functional, cell-based
Autotaxin [5] = molecular target: T1, Autotaxin; experiment: Inhibition of ATX (unknown origin) using bis-(p-nitrophenyl)phosphate as substrate at 30 uM
[6] = molecular target: Lysophosphatidic acid receptor 1 (Homo sapiens) (UniProt Q92633); experiment: Antagonist activity at LPA1 receptor (unknown origin) expressed in CHO-K1 cells assessed as LPA-induced receptor activity measured as remaining receptor activity at 10 uM compound incubated for 1 hr followed by addition of LPA for 3 hrs by luminometry; type: cell-based
Chain of Lysophosphatidic acid receptor 1 (Homo sapiens) (Q92633 whole entry): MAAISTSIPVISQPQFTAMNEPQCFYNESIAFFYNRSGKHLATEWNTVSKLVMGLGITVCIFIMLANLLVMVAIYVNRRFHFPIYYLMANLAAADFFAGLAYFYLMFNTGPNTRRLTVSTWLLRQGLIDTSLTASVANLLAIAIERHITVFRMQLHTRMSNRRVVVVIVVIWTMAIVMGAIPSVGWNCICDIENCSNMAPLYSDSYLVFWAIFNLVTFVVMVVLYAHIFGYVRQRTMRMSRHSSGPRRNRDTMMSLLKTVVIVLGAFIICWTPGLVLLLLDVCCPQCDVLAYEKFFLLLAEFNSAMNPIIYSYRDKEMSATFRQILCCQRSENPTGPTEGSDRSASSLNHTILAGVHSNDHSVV

Structure (SMILES)	logD [1]	solubility kinetic at 1 h [2] [µg/mL]	Papp at 3 h [3] [×10⁻⁶ cm/s]	Ki (Autotaxin [4]) [µM]	Activity (A2780)	inhibition (PC-3)	inhibition (Autotaxin [5]) [%]	Activity [6] [%]
O=C(O)Cc1ccc(-c2ccc(CN3CC(=O)N(C4CCCCC4)C3=O)nc2)cc1	-0.35	93 (≈ 228 µM)	< 3	3.9				
O=C(O)Cc1cccc(-c2cccc(NC(=O)OCc3ccccc3)c2)c1	3.1	221 (≈ 612 µM)	6.4	3.5				
O=C1CN(Cc2ccc(-c3ccc(C4(C(=O)O)CC4)cc3)cc2)C(=O)N1c1ccccc1	1.5	195 (≈ 457 µM)	1.6	> 30				
CC(C)N1C(=O)CN(Cc2ccc(-c3ccc(CC(=O)O)cc3)cc2)C1=O	1.1	190 (≈ 519 µM)	0.3	1.2				
Brc1ccc(NC2CCOCC2)cc1				< 5				
O=C(Cc1ccc(-c2ccc3[nH]ccc3c2)cc1)OCc1ccccc1	7.25	70 (≈ 205 µM)	44.5	1.1				
O=C1CN(Cc2ccc(Br)cc2)C(=O)N1C1CCCCC1				< 5				
O=C1CN(Cc2ccc(-c3ccccc3)cc2)C(=O)N1c1ccccc1	6.24	7.5 (≈ 21.9 µM)	54	1.3	Non-toxic	Active		
O=C1CN(Cc2ccc(Br)cc2)C(=O)N1c1ccccc1				< 5				
CC(C)N1C(=O)CN(Cc2ccc(-c3ccc(CC(=O)O)cc3)cn2)C1=O	-1.38	108 (≈ 294 µM)	< 1	4				
O=C(O)Cc1ccc(-c2cccc(NC(=O)OCc3ccccc3)c2)cc1	3.19	198 (≈ 548 µM)	7.3	4.5	Non-toxic	Active		
O=C(O)Cc1ccc(-c2ccc(N(C(=O)OCc3ccccc3)C3CCOCC3)cc2)cc1	3.13	212 (≈ 476 µM)	2.3	> 30				
Cc1noc(-c2ccc(-c3ccc(CC(=O)O)cc3)cc2)c1NC(=O)O[C@H](C)c1ccccc1							< 20	11
O=C(O)Cc1ccc(-c2ccc(CN3CC(=O)N(c4ccccc4)C3=O)cc2)cc1	2.18	174 (≈ 436 µM)	0.3	3.6				
O=C(Cc1ccc(-c2ccc3cc[nH]c3c2)cc1)OCc1ccccc1	7.43	110 (≈ 322 µM)	51	> 30				
COC(=O)CNCc1ccc(Br)cc1				< 5				
O=C(O)Cc1ccc(-c2ccc(N(C(=O)OCc3ccccc3)C3CCCCC3)cc2)cc1	4.92	189 (≈ 426 µM)	15	2	Non-toxic	Active		
COC(=O)CNCc1ccc(Br)cn1				< 5				
Cc1noc(-c2ccc(CSCCC(=O)O)cc2)c1NC(=O)OC(C)c1ccccc1Cl (stereo unspecified)							< 20	16
O=C(O)Cc1ccc(-c2ccc(CN3CC(=O)N(C4CCCCC4)C3=O)cc2)cc1	1.12	186 (≈ 456 µM)	2.2	1.8				
O=C(O)Cc1ccccc1-c1cccc(NC(=O)OCc2ccccc2)c1	3.06	287 (≈ 794 µM)	14	4				
O=C(Nc1cccc(-c2ccccc2)c1)OCc1ccccc1	7.52	5 (≈ 16.5 µM)	45	> 30				
CC(C)N1C(=O)CN(Cc2ccc(Br)cn2)C1=O				< 5				
